{"source": "paper PMC11730591", "about": "(Scientific Reports, 2025)", "key": {"[1]": {"target": "T1, α-glucosidase (Saccharomyces cerevisiae, UniProt P53341)", "T1 sequence (P53341 whole entry)": "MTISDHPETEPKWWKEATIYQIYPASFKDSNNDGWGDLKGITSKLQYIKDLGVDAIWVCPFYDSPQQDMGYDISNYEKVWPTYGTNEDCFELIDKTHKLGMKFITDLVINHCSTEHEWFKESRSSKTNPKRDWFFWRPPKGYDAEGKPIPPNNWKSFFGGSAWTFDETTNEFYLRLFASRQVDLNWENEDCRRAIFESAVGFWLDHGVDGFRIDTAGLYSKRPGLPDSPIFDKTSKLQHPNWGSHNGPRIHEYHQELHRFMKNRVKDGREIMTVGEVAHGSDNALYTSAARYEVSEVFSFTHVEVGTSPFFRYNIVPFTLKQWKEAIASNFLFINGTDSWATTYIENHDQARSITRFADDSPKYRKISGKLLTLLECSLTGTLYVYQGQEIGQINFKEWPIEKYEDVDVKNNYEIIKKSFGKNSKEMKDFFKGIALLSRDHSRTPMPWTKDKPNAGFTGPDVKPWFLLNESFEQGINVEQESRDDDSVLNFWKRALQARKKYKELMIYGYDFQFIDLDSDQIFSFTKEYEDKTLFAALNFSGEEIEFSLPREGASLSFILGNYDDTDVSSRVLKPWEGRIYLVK", "test": "In vitro α-glucosidase inhibition assay", "assay_type": "biochemical", "details": "for α-Glucosidase inhibitory activity described in words: SAR discussion"}, "[2]": {"target": "T1, α-glucosidase", "test": "Enzyme kinetic studies", "assay_type": "biochemical"}}, "note": "Entries after “also recorded” stand apart in the source; their conditions may differ."}
{"smiles": "Cc1ccccc1NC(=O)CN1CCN(c2nc3ccccc3cc2/C=N/NC(N)=S)CC1", "note": "[Compound 7h, (E)-2-(4-(3-((2-carbamothioylhydrazono)methyl)quinolin-2-yl)piperazin-1-yl)-N-(o-tolyl)acetamide]", "values": [{"measurement": "α-Glucosidase inhibitory activity described in words", "setting": "[1]", "value": "diminished activity"}]}
{"smiles": "COc1ccc(OC)c(NC(=O)CN2CCN(c3nc4ccccc4cc3/C=N/NC(N)=S)CC2)c1", "note": "[Compound 7j, (E)-2-(4-(3-((2-carbamothioylhydrazono)methyl)quinolin-2-yl)piperazin-1-yl)-N-(2,5-dimethoxyphenyl)acetamide]", "values": [{"measurement": "Fold improvement in activity compared to acarbose", "setting": "[1]; versus acarbose as positive control", "value": 15, "unit": "fold"}, {"measurement": "Ki", "setting": "[2]", "value": 32, "unit": "µM"}, {"measurement": "Type of inhibition (Lineweaver-Burk plot)", "setting": "[2]; Km increased, Vmax unchanged with increasing inhibitor concentration", "value": "competitive inhibitor; also recorded: competitive inhibition"}]}
{"smiles": "COc1ccc(CNC(=O)CN2CCN(c3nc4ccccc4cc3/C=N/NC(N)=S)CC2)cc1", "note": "[Compound 7n, (E)-2-(4-(3-((2-carbamothioylhydrazono)methyl)quinolin-2-yl)piperazin-1-yl)-N-(4-methoxybenzyl)acetamide]", "values": [{"measurement": "α-Glucosidase inhibitory activity described in words", "setting": "[1]", "value": "poor activity"}]}
